Literature values in patent publication US9604971B2, “Co-crystal of the PAR-1 receptor antagonists vorapaxar and aspirin” (ARALEZ PHARMACEUTICALS TRADING DAC, priority 2013, dated 2017).

Conditions: over time; reverted to the crystalline structure of Form 1

stability of crystalline polymorphic form: unstable
Structure (SMILES): CCOC(=O)N[C@@H]1CC[C@@H]2[C@@H](C1)C[C@H]1C(=O)O[C@H](C)[C@H]1[C@H]2/C=C/c1ccc(-c2cccc(F)c2)cn1 [Form 2]
